Experimental data published in ChEMBL document CHEMBL1157413, “Pyronane monoterpenoids from the fruit of Gardenia jasminoides” (J Nat Prod, 2008).
pIC50: −log10 of the molar value.

Molecular target: T1, Tyrosinase (Agaricus bisporus, UniProt O42713)
T1 sequence (O42713 whole entry): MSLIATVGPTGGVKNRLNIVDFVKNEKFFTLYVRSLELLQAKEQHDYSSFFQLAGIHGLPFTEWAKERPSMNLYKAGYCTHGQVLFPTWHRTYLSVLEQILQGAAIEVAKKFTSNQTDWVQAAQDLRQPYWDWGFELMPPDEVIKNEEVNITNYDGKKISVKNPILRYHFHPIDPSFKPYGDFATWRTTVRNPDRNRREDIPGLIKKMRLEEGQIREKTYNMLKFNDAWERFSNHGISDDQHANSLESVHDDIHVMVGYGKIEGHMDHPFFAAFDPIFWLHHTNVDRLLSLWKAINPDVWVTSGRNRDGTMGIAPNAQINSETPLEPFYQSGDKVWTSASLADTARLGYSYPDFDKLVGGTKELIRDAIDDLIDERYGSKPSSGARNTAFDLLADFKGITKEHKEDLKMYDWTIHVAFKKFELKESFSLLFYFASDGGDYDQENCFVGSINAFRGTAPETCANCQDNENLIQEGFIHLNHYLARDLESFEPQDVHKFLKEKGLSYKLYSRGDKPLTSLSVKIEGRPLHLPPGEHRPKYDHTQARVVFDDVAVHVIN
Description: Inhibition of mushroom tyrosinase activity after 10 mins

pIC50: 2.66
SMILES: CC1(C)CC(=O)C=C(CO)[C@H]1CO [JASMINODIOL]
